Data on 15 compounds can be found in patent US5292760A, “4-heteroaryl-1,3-benzodiazepines and 2-substituted-α-(heteroaryl)benzeneethanamines” (Hoechst-Roussel Pharmaceuticals Inc., priority 1992, dated 1994).

In general, ED50 refers to the dose that gives a 50% effect, or the effect in half of the subjects.

Structures are written as SMILES. Counter-ions that a name gives are not always drawn. Like-named read-outs stand apart in the source and are kept apart here.

Assay [1] deals with tetrabenazine induced ptosis. Nature of the assay: tetrabenazine induced ptosis assay in mice (antidepressant activity). Particulars: Mus musculus, ip, read-out: Anti-Depressant Activity ED50. Format: in vivo.
For assay [2], the system named is Geller Conflict Paradigm in Rats. Nature of the assay: Geller Conflict Paradigm in Rats (anxiolytic activity). In kind it is in vivo. From the text:
The intraperitoneal (i.p.) dosages at which the following compounds show anxiolytic activity are: […]

Assay [3] relates to supramaximal electroshock (SES). Nature of the assay: supramaximal electroshock (SES) assay (anticonvulsant activity). In kind it is in vivo, male mouse. Particulars: Mus musculus, ip, read-out: Anticonvulsant Activity ED50. As to the method: The Formula III compounds of this invention are useful as anticonvulsants due to their anticonvulsant activity in mammals. Anticonvulsant activity is measured in the male mouse using the supramaximal electroshock (SES) assay described in Arch. Int. Pharmacodyn. 92: 97-107, 1952. Intraperitoneal doses of representative compounds of the invention and their ability to protect from the effect of SES is shown below in Table 2. ED50 values, i.e., the doses at which, within 95% confidence intervals, 50% of the animals are protected are calculated by computerized probit analysis.

Assay [4] concerns N-methyl-D-aspartic acid (NMDA)-induced seizures. Nature of the assay: N-Methyl-D,L-Aspartic Acid Induced Seizure Assay (NMDA protection). In kind it is in vivo, male Swiss Webster mice. Particulars: Mus musculus, 0.5 h; ip; N-methyl-D,L-aspartic acid 350 mg/kg, sc; total absence of clonic seizures during 30 minutes. The procedure:
In this assay, male Swiss Webster mice (Charles River), 18-25 grams are used. Animals are ordered at 33 to 36 days of age and can be used for 8 days after arrival. They are housed for at least 24 hours in a climate controlled animal colony with food and water available ad libitum. On the day of testing, animals are brought to the laboratory and randomly assigned to groups. N-Methyl-D,L-aspartic acid (350 mg) is dissolved in 10 ml of saline and mixed thoroughly with a homogenizer for 1-2 minutes. Test compounds are prepared in distilled water and, if insoluable, a suitable surfactant is added. For a primary screen the test compound is administered at 60 mg/kg, ip (10 ml/kg), to groups of ten mice, 30 minutes prior to challenge with N-methyl-D,L-aspartic acid (350 mg/kg, sc). After N-Methyl-D,L-aspartic acid administration animals are placed individually in clear plastic cyclinders (12"×5.5"×1/4") and then observed for clonic seizures. N-methyl-D,L-aspartic acid will produce clonic seizures, and sometimes tonic seizures and death, in vehicle control animals.
A clonic convulsion is defined as a single episode of clonic spasms of a least a 3 second duration. A tonic seizure is defined as a brief period of hindlimb flexion followed by a prolonged period of hindlimb extension. The mice treated with N-methyl-D,L-aspartic acid are considered "protected" when there is a total absence of clonic seizures during the 30 minute observation period.
Test compounds are run at the time of peak effect. Three or more doses are used (10 animals per group).
Data is calculated by the method of J. T. Litchfield, Jr. and F. Wilcoxon. A test should be repeated if 40% of vehicle control animals are protected. The normalized percent formula is used when 10-30% of the vehicle control animals are protected.
The normalized percent protection is calculated using the following formula: […]

Setting [5] is: 50% inhibition of ptosis of tetrabenazine-induced depression in mice.

For the compound `CCC1=Nc2ccccc2CC(c2ccncc2)N1C` (stereo not shown) [4,5-Dihydro-2-ethyl-3-methyl-4-(4-pyridinyl)-3H-1,3-benzodiazepine hemihydrate], the median effective dose (ED50) in assay [1] was 6.8 mg/kg.

Regarding `CN1C(=O)CN=C(c2ccccc2)c2cc(Cl)ccc21` [Diazepam, reference compound], the entries for the “Anti-Conflict Response, % Change Compared to Control” value in assay [2] (dose 10 m.g./kg i.p.), in assay [2] (dose 15 m.g./kg i.p.) and in assay [2] (dose 20 m.g./kg i.p.) were “+180%”, “+453%” and “+630%”, respectively.

As for `O=C1NC(=O)C(c2ccccc2)(c2ccccc2)N1` [Diphenylhydantoin, reference compound], in assay [3] (dose protecting 50% of the animals, 95% confidence, probit analysis), the ED50 was 3.9 mg/kg.

`CNC(Cc1ccccc1N)c1sccc1C` (stereo not drawn) [2-Amino-N-methyl-α-(3-methyl-2-thienyl)benzeneethanamine]: the ED50 amounted to 26.7 mg/kg in assay [4] and 4.6 mg/kg in assay [3]. For the same compound, the “Anti-Conflict Response, % Change Compared to Control” value in assay [2] (dose 20 m.g./kg i.p.) is recorded as “+807%”; in assay [2] (dose 40 m.g./kg i.p.) it was “+547%”; in assay [2] (dose 60 m.g./kg i.p.), “+242%”.

For `CCC1=Nc2ccccc2CC(c2sccc2C)N1C.Cl.O` (stereo not shown) [4,5-Dihydro-2-ethyl-3-methyl-4-(3-methyl-2-thienyl)-3H-1,3-benzodiazepine hydrochloride monohydrate], in assay [1] (setting [5]), the ED50 came out at 5.3 mg/kg.

`Cc1ccsc1C(N)Cc1ccccc1N.Cl.Cl` (stereo not drawn) [2-Amino-α-(3-methyl-2-thienyl)benzeneethanamine dihydrochloride] gave an ED50 in assay [4] of 19 mg/kg.

`NC(CCCP(=O)(O)O)C(=O)O` (stereo not shown) [2-Amino-5-phosphonovaleric acid, reference compound]: the ED50 in assay [4] is 48.5 mg/kg.

In assay [4], `CNC(Cc1ccc(C(F)(F)F)cc1N)c1sccc1C` (stereo not drawn) [2-Amino-N-methyl-α-(3-methyl-2-thienyl)-4-trifluoromethylbenzeneethanamine] registered an ED50 of 26.4 mg/kg.

In the case of `CNC(Cc1cc(Br)ccc1N)c1sccc1C` (stereo not drawn) [2-Amino-5-bromo-N-methyl-α-(3-methyl-2-thienyl)benzeneethaneamine], in assay [3], the ED50 amounted to 9.2 mg/kg.

As for `CCNC(Cc1ccccc1N)c1sccc1C.Cl.Cl` (stereo not drawn) [2-Amino-N-ethyl-α-(3-methyl-2-thienyl)benzeneethanamine dihydrochloride], the figures for the “Anti-Conflict Response, % Change Compared to Control” value in assay [2] (dose 1 m.g./kg i.p.) and in assay [2] (dose 5 m.g./kg i.p.) were “+100%” and “+70%”, respectively.

For `CNC(Cc1ccccc1N)c1cccs1` (stereo not drawn) [2-Amino-N-methyl-α-(2-thienyl)benzeneethanamine dihydrochloride hemihydrate], the 50% effective dose (ED50) in assay [3] amounted to 30.4 mg/kg.

For `CCC1=Nc2ccccc2CC(c2ccsc2)N1C.Cl` (stereo not shown) [4,5-Dihydro-2-ethyl-3-methyl-4-(3-thienyl)-3H-1,3-benzodiazepine hydrochloride], the ED50 in assay [1] (setting [5]) turned out to be 8.7 mg/kg.

For `CC1=Nc2ccccc2CC(c2ccc(C)s2)N1C` (stereo not shown) [4,5-Dihydro-2,3-dimethyl-4-(5-methyl-2-thienyl)-3H-1,3-benzodiazepine], the median effective dose (ED50) in assay [1] worked out at 12.2 mg/kg.

As for `CN(C)CCC=C1c2ccccc2COc2ccccc21` [Doxepin, reference compound], the median effective dose (ED50) in assay [1] (setting [5]) was found to be 3.8 mg/kg.

In the case of `CCC1=Nc2ccccc2CC(c2cccs2)N1C.Cl` (stereo not shown) [4,5-Dihydro-2-ethyl-3-methyl-4-(2-thienyl)-3H-1,3-benzodiazepine hydrochloride], the median effective dose (ED50) in assay [1] (setting [5]) is 4.7 mg/kg.
